Data: patent publication US8680119B2, “Ethers, secondary amines and derivatives thereof as modulators of the 5-HT2A serotonin receptor useful for the treatment of disorders related thereto” (Arena Pharmaceuticals, Inc., priority 2006, dated 2014)

system: diabetic rats; experiment: not given; settings: range stated for all three drugs; cited from earlier work

Row | SMILES | correction of a 19.8% sciatic motor conduction deficit
1 | O=CN1CCC(C(=O)NCCN2CCC(=C3c4ccccc4C=Cc4ccccc43)CC2)CC1 [AT-1015] | 82.6-99.7%
2 | Cc1nc2sccn2c(=O)c1CCN1CCC(=C(c2ccc(F)cc2)c2ccc(F)cc2)CC1 [ritanserin] | 82.6-99.7%
3 | COc1cccc(CCc2ccccc2OCC(CN(C)C)OC(=O)CCC(=O)O)c1 (stereo not shown) [sarpogrelate] | 82.6-99.7%

molecular target: human 5-HT2A receptor (Homo sapiens (Human), UniProt P28223); experiment: [125I]DOI radioligand binding assay; settings: 0.5 nM [125I]DOI, COS7 membranes with recombinant human 5-HT2A receptor
Procedure: For the IP accumulation assay (Example 3), HEK293 cells were transfected while for the DOI binding assay (Example 4) COS7 cells were transfected. Several protocols well known in the art can be used to transfect cells. The following protocol is representative of the transfection procedures used herein for COS7 or 293 cells.
On day one, COS-7 cells were plated onto 24 well plates, usually 1×10^5 cells/well or 2×10^5 cells/well, respectively. On day two, the cells were transfected by first mixing 0.25 μg cDNA in 50 μL serum-free DMEM/well and then 2 μL lipofectamine in 50 μL serum-free DMEM/well. The solutions (“transfection media”) were gently mixed and incubated for 15-30 minutes at room temperature. The cells were washed with 0.5 mL PBS and then 400 μL of serum free media was mixed with the transfection media and added to the cells. The cells were then incubated for 3-4 hours at 37° C./5% CO2. Then the transfection media was removed and replaced with 1 mL/well of regular growth media.
Compounds of the invention were tested for their ability to bind to a 5-HT2A receptor clone membrane preparation using a radioligand binding assay. Briefly, COS cells were transiently transfected with a pCMV expression vector containing a human 5-HT2A receptor (for the sequence of the receptor see U.S. Pat. No. 6,541,209, SEQ ID NO:24) as described in Example 2.
COS7 cells transfected with recombinant human 5-HT2A receptors were cultured for 48 hr post transfection, collected, washed with ice-cold phosphate buffered saline, pH7.4 (PBS), and then centrifuged at 48,000×g for […] at 4° C. The cell pellet was then resuspended in wash buffer containing 20 mM HEPES pH 7.4 and 0.1 mM EDTA, homogenized on ice using a Brinkman polytron, and recentrifuged at 48,000×g for 20 min. at 4° C. The resultant pellet was then resuspended in 20 mM HEPES, pH 7.4, homogenized on ice, and centrifuged (48,000×g for 20 min at 4° C.). Crude membrane pellets were stored at −80° C. until used for radioligand binding assays.
Radioligand binding assays for human 5-HT2A receptor was conducted using the 5-HT2 agonist [^125I]DOI as radioligand. To define nonspecific binding, 10 μM DOI was used for all assays. For competitive binding studies, 0.5 nM [^125I]DOI was used and compounds were assayed over a range of 0.01 nM to 10 μM. Assays were conducted in a total volume of 200 μl in 96-well Perkin Elmer GF/C filter plates in assay buffer (50 mM Tris-HCl, pH 7.4, 0.5 mM EDTA, 5 mM MgCl2, and 10 μM pargyline). […] Plates were then dried at room temperature and counted in a Wallac microBeta scintillation counter.

Row | SMILES | IC50 [nM]
4 | COCCNCCOc1ccc(NC(=O)c2cccc(C(F)(F)F)c2)cc1-c1c(Cl)cnn1C [Compound 15, N-{3-(4-Chloro-2-methyl-2H-pyrazol-3-yl)-4-[2-(2-methoxy-ethylamino)-ethoxy]-phenyl}-3-trifluoromethyl-benzamide] | 0.082
5 | COCCNC(=O)COc1ccc(NC(=O)c2cccc(C(F)(F)F)c2)cc1-c1c(Cl)cnn1C [Compound 50, N-{3-(4-Chloro-2-methyl-2H-pyrazol-3-yl)-4-[(2-methoxy-ethylcarbamoyl)-methoxy]-phenyl}-3-trifluoromethyl-benzamide] | 52
6 | COCCOc1ccc(NC(=O)c2cccc(C(F)(F)F)c2)cc1-c1ccnn1C [Compound 52, N-[4-(2-Methoxy-ethoxy)-3-(2-methyl-2H-pyrazol-3-yl)-phenyl]-3-trifluoromethyl-benzamide] | 4.4
7 | COc1cccc(C(=O)Nc2ccc(OCCO)c(-c3c(Cl)cnn3C)c2)c1 [Compound 68, N-[3-(4-Chloro-2-methyl-2H-pyrazol-3-yl)-4-(2-hydroxy-ethoxy)-phenyl]-3-methoxy-benzamide] | 0.51
